Results from ChEMBL document CHEMBL3885861, “Open TG-GATES”.

Species: Rattus norvegicus
Assay: Open TG-GATES - Regimen: Single
Assay type: toxicity, organism-based, Sprague-Dawley
Set-up: regimen Single, gender Male, age 6 weeks
Conditions: in vivo, po, 1000 mg/kg, route gavage, dose level High; for APTT / Bas / Eos / Fbg / Hb / Ht / Lym / MCH / MCHC / MCV / Mono / Neu / PT / Plat / RBC / Ret / WBC: tissue Blood; for KIDNEY_L / KIDNEY_R / KIDNEY_TOTAL: tissue Kidney; for LIVER: tissue Liver; for A/G / ALP / ALT / AST / BUN / CRE / Ca / Cl / DBIL / GLC / IP / LDH / Na / PL / RALB / TBIL / TC / TG / TP / gamma-GTP: tissue Plasma

## NC(N)=Nc1nc(CSCCC(N)=NS(N)(=O)=O)cs1 [FAMOTIDINE]
3 h
  TERMINAL_BW: 216.4 g
  APTT: 18.8 s
  Bas: 0%
  Eos: 1%
  Fbg: 209.8 mg/dL
  Hb: 12.9 g/dL
  Ht: 37.1%
  Lym: 80.8%
  MCH: 20.8 pg
  MCHC: 34.8%
  MCV: 59.8 fL
  Mono: 2.8%
  Neu: 14%
  PT: 12.6 s
  Plat: 124.2 x10_4/uL
  RBC: 620.2 x10_4/ul
  Ret: 7.6%
  WBC: 90.8 x10_2/uL
  KIDNEY_L: 1 g
  KIDNEY_R: 1 g
  KIDNEY_TOTAL: 1.9 g
  LIVER: 10.2 g
  A/G: 1.6
  ALP: 873.2 IU/L
  ALT: 35.6 IU/L
  AST: 66.6 IU/L
  BUN: 9.4 mg/dL
  CRE: 0.4 mg/dL
  Ca: 10.7 mg/dL
  Cl: 103.4 meq/L
  DBIL: 0.07 mg/dL
  GLC: 194.4 mg/dL
  IP: 9 mg/dL
  LDH: 188.8 IU/L
  Na: 140 meq/L
  PL: 149.4 mg/dL
  RALB: 3.3 g/dL
  TBIL: 0.1 mg/dL
  TC: 81.2 mg/dL
  TG: 51.8 mg/dL
  TP: 5.3 g/dL
  gamma-GTP: 1.2 IU/L
6 h
  TERMINAL_BW: 212.4 g
  APTT: 20.5 s
  Bas: 0%
  Eos: 1%
  Fbg: 217.8 mg/dL
  Hb: 13.4 g/dL
  Ht: 37.7%
  Lym: 74%
  MCH: 21.7 pg
  MCHC: 35.4%
  MCV: 61.2 fL
  Mono: 2.8%
  Neu: 20.6%
  PT: 12.5 s
  Plat: 112.6 x10_4/uL
  RBC: 617 x10_4/ul
  Ret: 6.9%
  WBC: 73.8 x10_2/uL
  KIDNEY_L: 1 g
  KIDNEY_R: 1 g
  KIDNEY_TOTAL: 1.9 g
  LIVER: 9 g
  A/G: 1.6
  ALP: 885.4 IU/L
  ALT: 31.8 IU/L
  AST: 65.8 IU/L
  BUN: 8.6 mg/dL
  CRE: 0.4 mg/dL
  Ca: 10.6 mg/dL
  Cl: 104 meq/L
  DBIL: 0.072 mg/dL
  GLC: 192.4 mg/dL
  IP: 8.9 mg/dL
  LDH: 204.2 IU/L
  Na: 141 meq/L
  PL: 140.4 mg/dL
  RALB: 3.4 g/dL
  TBIL: 0.1 mg/dL
  TC: 73 mg/dL
  TG: 50.8 mg/dL
  TP: 5.5 g/dL
  gamma-GTP: 1.4 IU/L
9 h
  TERMINAL_BW: 211.3 g
  APTT: 16.7 s
  Bas: 0%
  Eos: 0.8%
  Fbg: 222.2 mg/dL
  Hb: 13.1 g/dL
  Ht: 36.5%
  Lym: 78%
  MCH: 22 pg
  MCHC: 35.9%
  MCV: 61.4 fL
  Mono: 2.4%
  Neu: 17%
  PT: 12.4 s
  Plat: 112.4 x10_4/uL
  RBC: 594.2 x10_4/ul
  Ret: 7.3%
  WBC: 68.5 x10_2/uL
  KIDNEY_L: 1 g
  KIDNEY_R: 1 g
  KIDNEY_TOTAL: 1.9 g
  LIVER: 8.6 g
  A/G: 1.6
  ALP: 861.4 IU/L
  ALT: 28 IU/L
  AST: 59.8 IU/L
  BUN: 9.8 mg/dL
  CRE: 0.4 mg/dL
  Ca: 10.3 mg/dL
  Cl: 103.8 meq/L
  DBIL: 0.052 mg/dL
  GLC: 205.6 mg/dL
  IP: 9 mg/dL
  LDH: 150 IU/L
  Na: 140 meq/L
  PL: 151.4 mg/dL
  RALB: 3.3 g/dL
  TBIL: 0.1 mg/dL
  TC: 85.2 mg/dL
  TG: 27.2 mg/dL
  TP: 5.4 g/dL
  gamma-GTP: 0.8 IU/L
24 h
  TERMINAL_BW: 223.1 g
  APTT: 22.2 s
  Bas: 0%
  Eos: 1%
  Fbg: 218.4 mg/dL
  Hb: 13.3 g/dL
  Ht: 37.1%
  Lym: 77.2%
  MCH: 21.8 pg
  MCHC: 35.9%
  MCV: 60.7 fL
  Mono: 2.8%
  Neu: 17.2%
  PT: 12.3 s
  Plat: 129.4 x10_4/uL
  RBC: 612.2 x10_4/ul
  Ret: 5.8%
  WBC: 77.3 x10_2/uL
  KIDNEY_L: 1 g
  KIDNEY_R: 1 g
  KIDNEY_TOTAL: 2.1 g
  LIVER: 9.6 g
  A/G: 1.6
  ALP: 1062.2 IU/L
  ALT: 39 IU/L
  AST: 65.4 IU/L
  BUN: 14.4 mg/dL
  CRE: 0.4 mg/dL
  Ca: 10.5 mg/dL
  Cl: 102.6 meq/L
  DBIL: 0.078 mg/dL
  GLC: 199.6 mg/dL
  IP: 8.2 mg/dL
  LDH: 165 IU/L
  Na: 140.2 meq/L
  PL: 137.6 mg/dL
  RALB: 3.3 g/dL
  TBIL: 0.1 mg/dL
  TC: 76.2 mg/dL
  TG: 67.4 mg/dL
  TP: 5.5 g/dL
  gamma-GTP: 1 IU/L
